For eleven compounds, GI50 and TGI results are on record in PubChem BioAssay (NCI).

Assay in all cases: DTP human tumour cell line panel, 48 h
Assay [1] deals with SF-268 CNS.
Assay [2] has as its system TK-10 renal.
The subject of assay [3] is SR leukemia.
For assay [4], the system named is RPMI-8226 leukemia.
Assay [5] deals with HOP-62 NSCLC.
The test system of assay [6] is M14 melanoma.
In assay [7] the test system is LOX IMVI melanoma.
Assay [8] has as its system CAKI-1 renal.
Assay [9] has as its system UACC-62 melanoma.
Assay [10] deals with MOLT-4 leukemia.

SMILES strings stand for the structures.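 Results reflect a 48-hour exposure of cells in 96-well plates to compound at five concentrations. GI50: concentration for 50% inhibition of growth. TGI marks complete inhibition of growth.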

`O=C1NC(=NCc2ccccc2)S/C1=C\c1ccc2ncccc2c1`: the GI50 in [1] was more than 25 µM; in assay [2], more than 25 µM; in [3], 1.05 µM; in assay [4], more than 25 µM; in assay [5], more than 25 µM; in assay [6], more than 25 µM. The GI50 in assay [7], in assay [8], in assay [9] and in [10] was more than 25 µM in each case. Besides, the TGI in assay [1], in assay [2], in assay [3], in assay [4], in [5] and in assay [6] was more than 25 µM throughout. Further, the total growth inhibition concentration (TGI) in assay [7], in assay [8], in [9] and in [10] was more than 25 µM each time.

`Cc1cc2c(cc1C)[n+](=O)c(C(=O)c1ccccc1)c(C(F)F)n2[O-]`: the GI50 in assay [1] is 13 µM; in [2] it was 38 µM; in [3], 4.39 µM; in assay [4], 5.81 µM; in [5] it was 26.4 µM; in assay [6], 16.9 µM. Also, the GI50 is 10.3 µM in assay [7], 15.5 µM in assay [8], 18.4 µM in [9] and 8.02 µM in [10]. Further, the TGI in [1] is more than 100 µM; in assay [2], more than 100 µM; in assay [3] it was 98.4 µM; in assay [4], 43.9 µM; in assay [5] it was more than 100 µM; in assay [6] it was more than 100 µM. Further, the concentration for total growth inhibition (TGI) in assay [7] is more than 100 µM; in assay [8], 71.7 µM; in assay [9], 96.9 µM; in assay [10] it was 43.1 µM.

With `c1ccc(-c2n(Cc3ccc4ccccc4n3)cc[n+]2Cc2ccc3ccccc3c2)cc1`, the GI50 in [1] was 1.91 µM; in [2] it was 1.61 µM; in assay [3], 0.573 µM; in assay [4], 0.288 µM; in assay [5] it was 2.01 µM; in assay [6], 1.25 µM. In addition, the GI50 was 0.955 µM in [7], 1.59 µM in assay [8], 0.631 µM in assay [9] and 1.64 µM in assay [10]. Moreover, the TGI turned out to be 5.5 µM in assay [1]; 4.11 µM in assay [2]; 3.11 µM in assay [3]; 1.52 µM in assay [4]; 6.13 µM in assay [5]; 3.35 µM in [6]. The concentration for total growth inhibition (TGI) in assay [7] was 2.31 µM; in assay [8] it was 3.54 µM; in assay [9], 2.06 µM; in assay [10] it was 4.38 µM.

As to `O=C(Nc1nn2c(-c3cc(C(F)(F)F)cc(C(F)(F)F)c3)nnc2s1)C1CCCC1`, the GI50 in [1] was 1.08 µM; in [2], 1.79 µM; in assay [3] it was 0.942 µM; in assay [4], 0.368 µM; in [5], 2.42 µM; in assay [6] it was 0.957 µM. Moreover, the GI50 in [7] was 0.807 µM; in assay [8], 0.311 µM; in assay [9], 0.253 µM; in assay [10], 0.643 µM. Besides, the TGI in [1] is more than 100 µM; in assay [2], more than 100 µM; in [3], 6.21 µM; in assay [4] it was more than 25.6 µM; in assay [5], more than 29.8 µM; in assay [6], more than 100 µM. In addition, the TGI in assay [7] was more than 100 µM; in [8], more than 65.2 µM; in [10] it was 4.53 µM.

Take `C[C@@]1(O)CC[C@]2(C)C3CCCC3[C@H]12` (stereo partly drawn): the TGI in [1], in [2], in assay [3], in assay [4], in assay [5] and in assay [6] was more than 100 µM in each case. Moreover, the TGI in assay [7], in assay [8], in [9] and in assay [10] was more than 100 µM throughout.

`CCOC(=O)n1cc(C2=C(c3ccc(OC)c(OC)c3)COC2=O)c2ccccc21`: the GI50 in [1] is 0.262 µM; in assay [2], 13.5 µM; in [3], 0.0297 µM; in assay [4] it was 0.0327 µM; in assay [5], 0.075 µM; in [6], 0.0348 µM. Moreover, the 50% growth inhibitory concentration (GI50) in assay [7] was 0.0623 µM; in [8] it was 0.0465 µM; in assay [9], 0.0436 µM; in assay [10] it was 0.0581 µM. The concentration for total growth inhibition (TGI) is more than 100 µM in assay [1]; more than 91.5 µM in assay [2]; more than 100 µM in assay [3]; 1.65 µM in assay [4]; more than 100 µM in assay [5]; more than 100 µM in [6]. The total growth inhibition concentration (TGI) in assay [7] is more than 100 µM; in assay [8] it was 37.1 µM; in assay [9], more than 100 µM; in assay [10], more than 100 µM.

Take `O=C1OCC2=C1C(c1cccc(Br)c1)c1cc3c(cc1N2CCO)OCCO3` (stereo not drawn): the 50% growth inhibitory concentration (GI50) in assay [1] is 0.0766 µM; in assay [2], 0.101 µM; in assay [3] it was 0.127 µM; in assay [4], 0.0714 µM; in assay [5] it was 0.0891 µM; in assay [6], 0.0421 µM. Further, the 50% growth inhibitory concentration (GI50) in [7] is 0.107 µM; in assay [8], 0.0522 µM; in [9], 0.022 µM; in [10] it was 0.225 µM. Besides, the TGI in assay [1] is 8.38 µM; in assay [2] it was 16.9 µM; in assay [3] it was 31 µM; in assay [4], 14 µM; in assay [5], 18.7 µM; in assay [6] it was 0.453 µM. The TGI in [7] was 9.28 µM; in [8] it was 7.54 µM; in assay [9], more than 23.7 µM; in assay [10] it was more than 42.2 µM.

Take `COC(=O)/C=C/c1cc(OC(C)=O)c2c(c1)[C@@H](C(=O)OC)[C@H](c1ccc(OC(C)=O)c(OC(C)=O)c1)O2`: the GI50 in assay [1] is 0.301 µM; in assay [2] it was 2.58 µM; in assay [3], 0.0281 µM; in assay [4], 0.049 µM; in assay [5], 0.0779 µM; in [6], 0.0338 µM. Moreover, the GI50 in assay [7] is 0.0615 µM; in [8], 0.314 µM; in [9], 0.359 µM; in assay [10] it was 0.09 µM. Further, the concentration for total growth inhibition (TGI) in assay [1] is 57.5 µM; in assay [2], more than 91.1 µM; in assay [3], more than 49.6 µM; in [5], 63.9 µM; in [6], 39 µM; in [7], 40.3 µM. Moreover, the figures for the TGI in [8], in assay [9] and in [10] were 44.7 µM, 26 µM and more than 55 µM, respectively.

Turning to `C=C(C)C(=O)O[C@@H]1C[C@@]2(C)O[C@@H]2C[C@H](O)/C(C)=C/[C@H]2OC(=O)C(=C)[C@@H]21`, the concentration for total growth inhibition (TGI) in assay [1], in assay [2], in assay [3], in [4], in [5] and in assay [6] was more than 100 µM each time. For the same compound, the total growth inhibition concentration (TGI) is more than 100 µM in assay [7], 67.4 µM in [8], more than 100 µM in assay [9] and more than 100 µM in assay [10].

Regarding `O=C1c2ccccc2C(=O)c2c(/C=C\N3CCCCC3)ccnc21`, the TGI was determined as 39.9 µM in [1]; 34.4 µM in assay [2]; 35.9 µM in assay [3]; 52.6 µM in [4]; 13.9 µM in assay [5]; 1.26 µM in [6]. The TGI in assay [7] amounted to 1.68 µM; in assay [8] it was 39.5 µM; in assay [9], 1.58 µM; in assay [10] it was 41.1 µM.

As for `CN(C)c1ccc(/C=N/NC(=S)Nc2ccccc2)cc1`, the total growth inhibition concentration (TGI) in assay [1], in [2], in [3], in [4], in [5] and in assay [6] was more than 100 µM each time. For the same compound, the TGI in assay [7], in assay [8], in [9] and in assay [10] was more than 100 µM each time.
